Measurements as given in publication PMC10895678 (Journal of Medicinal Chemistry, 2024).
In brackets after ≈: the same amount, converted by molar mass.

Assays:
[1] = tested on: M. smegmatis and M. bovis BCG
MDR-M. tb 08/00483E = experiment: microbe, parasite or virus in culture; format: cell-based, Mycobacterium tuberculosis; conditions: for MIC99: Mycobacterium tuberculosis, read-out: MDR-M. tb 08/00483E MIC99

Row | SMILES | resistant colonies formed [1] | MIC99 (MDR-M. tb 08/00483E) [µM] | fold lower MIC in MDR isolate 08/00483E in comparison to the drug-sensitive isolate (MDR-M. tb 08/00483E) [fold]
1 | FC(F)(F)Oc1ccc(C2CC(CN3CCCC3)N2Cc2ccccc2OC(F)(F)F)cc1 (centres unmarked) [BGAz-002] | three resistant colonies | 33.5 (≈ 15.9 µg/mL) | –
2 | Brc1cc(Br)cc(C2CC(CN3CCCC3)N2Cc2ccccc2Br)c1 (centres unmarked) [BGAz-004] | – | 15.6 (≈ 8.47 µg/mL) | –
3 | CNCC1CC(c2ccc(OC(F)(F)F)cc2)N1Cc1ccccc1OC(F)(F)F (centres unmarked) [BGAz-005] | – | 2.8 (≈ 1.22 µg/mL) | 8
